How the values were obtained:
Assay type in all cases: cell-based, human
CCRF-CEM = test: NCI60 antitumor screening; details: 10 μM one-dose
HL-60(TB) = test: NCI60 antitumor screening; details: 10 μM one-dose
K-562 = test: NCI60 antitumor screening; details: 10 μM one-dose
MOLT-4 = test: NCI60 antitumor screening; details: 10 μM one-dose
RPMI-8226 = test: NCI60 antitumor screening; details: 10 μM one-dose
SR = test: NCI60 antitumor screening; details: 10 μM one-dose
A549/ATCC = test: NCI60 antitumor screening; details: 10 μM one-dose
EKVX = test: NCI60 antitumor screening; details: 10 μM one-dose
HOP-62 = test: NCI60 antitumor screening; details: 10 μM one-dose
HOP-92 = test: NCI60 antitumor screening; details: 10 μM one-dose
NCI-H226 = test: NCI60 antitumor screening; details: 10 μM one-dose
NCI-H23 = test: NCI60 antitumor screening; details: 10 μM one-dose
NCI-H322M = test: NCI60 antitumor screening; details: 10 μM one-dose
NCI-H460 = test: NCI60 antitumor screening; details: 10 μM one-dose
NCI-H522 = test: NCI60 antitumor screening; details: 10 μM one-dose
COLO 205 = test: NCI60 antitumor screening; details: 10 μM one-dose
HCC-2998 = test: NCI60 antitumor screening; details: 10 μM one-dose
HCT-116 = test: NCI60 antitumor screening; details: 10 μM one-dose
HCT-15 = test: NCI60 antitumor screening; details: 10 μM one-dose
HT29 = test: NCI60 antitumor screening; details: 10 μM one-dose
KM12 = test: NCI60 antitumor screening; details: 10 μM one-dose
SW-620 = test: NCI60 antitumor screening; details: 10 μM one-dose
SF-268 = test: NCI60 antitumor screening; details: 10 μM one-dose
SF-295 = test: NCI60 antitumor screening; details: 10 μM one-dose
SF-539 = test: NCI60 antitumor screening; details: 10 μM one-dose
SNB-19 = test: NCI60 antitumor screening; details: 10 μM one-dose
SNB-75 = test: NCI60 antitumor screening; details: 10 μM one-dose
U251 = test: NCI60 antitumor screening; details: 10 μM one-dose
LOX IMVI = test: NCI60 antitumor screening; details: 10 μM one-dose
MALME-3M = test: NCI60 antitumor screening; details: 10 μM one-dose
M14 = test: NCI60 antitumor screening; details: 10 μM one-dose
MDA-MB-435 = test: NCI60 antitumor screening; details: 10 μM one-dose
SK-MEL-2 = test: NCI60 antitumor screening; details: 10 μM one-dose
SK-MEL-28 = test: NCI60 antitumor screening; details: 10 μM one-dose
SK-MEL-5 = test: NCI60 antitumor screening; details: 10 μM one-dose
UACC-257 = test: NCI60 antitumor screening; details: 10 μM one-dose
UACC-62 = test: NCI60 antitumor screening; details: 10 μM one-dose
IGROV1 = test: NCI60 antitumor screening; details: 10 μM one-dose
OVCAR-3 = test: NCI60 antitumor screening; details: 10 μM one-dose
OVCAR-4 = test: NCI60 antitumor screening; details: 10 μM one-dose
OVCAR-5 = test: NCI60 antitumor screening; details: 10 μM one-dose
OVCAR-8 = test: NCI60 antitumor screening; details: 10 μM one-dose
NCI/ADR-RES = test: NCI60 antitumor screening; details: 10 μM one-dose
SK-OV-3 = test: NCI60 antitumor screening; details: 10 μM one-dose
786–0 = test: NCI60 antitumor screening; details: 10 μM one-dose
A498 = test: NCI60 antitumor screening; details: 10 μM one-dose
ACHN = test: NCI60 antitumor screening; details: 10 μM one-dose
CAKI-1 = test: NCI60 antitumor screening; details: 10 μM one-dose
RXF 393 = test: NCI60 antitumor screening; details: 10 μM one-dose
SN12C = test: NCI60 antitumor screening; details: 10 μM one-dose
TK-10 = test: NCI60 antitumor screening; details: 10 μM one-dose
UO-31 = test: NCI60 antitumor screening; details: 10 μM one-dose
PC-3 = test: NCI60 antitumor screening; details: 10 μM one-dose
DU-145 = test: NCI60 antitumor screening; details: 10 μM one-dose
MCF7 = test: NCI60 antitumor screening; details: 10 μM one-dose
MDA-MB-231/ATCC = test: NCI60 antitumor screening; details: 10 μM one-dose
HS 578T = test: NCI60 antitumor screening; details: 10 μM one-dose
BT-549 = test: NCI60 antitumor screening; details: 10 μM one-dose
T-47D = test: NCI60 antitumor screening; details: 10 μM one-dose
MDA-MB-468 = test: NCI60 antitumor screening; details: 10 μM one-dose
NCI60 cell lines panel = test: NCI60 antitumor screening, full panel; details: 10 μM one-dose, mean over NCI60
How it was run: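 Percent growth inhibition (GI%) was recorded for each of the NCI60 lines, spanning leukaemia, lung, colon, CNS, melanoma, ovarian, renal, prostate and breast cancers, after exposure to compounds at one concentration, 10 μM.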

Q: What does the source list for `N#Cc1c(-c2ccc(F)cc2)nc(SCc2ccccc2)nc1N1CCOCC1` [4a, 2-(Benzylthio)-4-(4-fluorophenyl)-6-morpholinopyrimidine-5-carbonitrile]?
A: GI% (CCRF-CEM): — (GI% < 10); GI% (HL-60(TB)): 31.31%; GI% (K-562): 16.46%; GI% (MOLT-4): — (GI% < 10); GI% (RPMI-8226): — (GI% < 10); GI% (SR): — (GI% < 10); GI% (A549/ATCC): — (GI% < 10); GI% (EKVX): — (GI% < 10); GI% (HOP-62): — (GI% < 10); GI% (HOP-92): 15.08%; GI% (NCI-H226): — (GI% < 10); GI% (NCI-H23): — (GI% < 10); GI% (NCI-H322M): — (GI% < 10); GI% (NCI-H460): — (GI% < 10); GI% (NCI-H522): 16.81%; GI% (COLO 205): — (GI% < 10); GI% (HCC-2998): — (GI% < 10); GI% (HCT-116): 10.37%; GI% (HCT-15): — (GI% < 10); GI% (HT29): — (GI% < 10); GI% (KM12): — (GI% < 10); GI% (SW-620): — (GI% < 10); GI% (SF-268): — (GI% < 10); GI% (SF-295): — (GI% < 10); GI% (SF-539): 16.91%; GI% (SNB-19): — (GI% < 10); GI% (SNB-75): — (GI% < 10); GI% (U251): — (GI% < 10); GI% (LOX IMVI): — (GI% < 10); GI% (MALME-3M): — (GI% < 10); GI% (M14): — (GI% < 10); GI% (MDA-MB-435): — (GI% < 10); GI% (SK-MEL-2): — (GI% < 10); GI% (SK-MEL-28): — (GI% < 10); GI% (SK-MEL-5): — (GI% < 10); GI% (UACC-257): — (GI% < 10); GI% (UACC-62): 13.24%; GI% (IGROV1): — (GI% < 10); GI% (OVCAR-3): — (GI% < 10); GI% (OVCAR-4): — (GI% < 10); GI% (OVCAR-5): — (GI% < 10); GI% (OVCAR-8): 21.20%; GI% (NCI/ADR-RES): 10.32%; GI% (SK-OV-3): — (GI% < 10); GI% (786–0): — (GI% < 10); GI% (A498): — (GI% < 10); GI% (ACHN): — (GI% < 10); GI% (CAKI-1): — (GI% < 10); GI% (RXF 393): — (GI% < 10); GI% (SN12C): — (GI% < 10); GI% (TK-10): — (GI% < 10); GI% (UO-31): — (GI% < 10); GI% (PC-3): — (GI% < 10); GI% (DU-145): — (GI% < 10); GI% (MCF7): — (GI% < 10); GI% (MDA-MB-231/ATCC): 10.65%; GI% (HS 578T): 19.87%; GI% (BT-549): 19.15%; GI% (T-47D): 15.89%; GI% (MDA-MB-468): — (GI% < 10); Mean GI% (NCI60 cell lines panel): — (GI% < 10)

Q: With `N#Cc1c(-c2ccc(F)cc2)nc(SCc2ccc([N+](=O)[O-])cc2)[nH]c1=O` [2c, 4-(4-Fluorophenyl)-2-((4-nitrobenzyl)thio)-6-oxo-1,6-dihydropyrimidine-5-carbonitrile] as the compound, how does the GI% (CCRF-CEM) read?
A: 15.45%

Q: What about the GI% (HL-60(TB)) of the same compound?
A: 49.95%

Q: What about the GI% (K-562) of the same compound?
A: 31.45%

Q: What about the GI% (MOLT-4) of the same compound?
A: 24.34%

Q: And the GI% (RPMI-8226)?
A: 14.16%

Q: What about the GI% (SR) of the same compound?
A: — (GI% < 10)

Q: And the GI% (A549/ATCC)?
A: — (GI% < 10)

Q: And the GI% (EKVX)?
A: 12.04%

Q: And the GI% (HOP-62)?
A: — (GI% < 10)

Q: What about the GI% (HOP-92) of the same compound?
A: 33.01%

Q: What about the GI% (NCI-H226) of the same compound?
A: 22.53%

Q: And the GI% (NCI-H23)?
A: — (GI% < 10)

Q: What about the GI% (NCI-H322M) of the same compound?
A: — (GI% < 10)

Q: What about the GI% (NCI-H460) of the same compound?
A: — (GI% < 10)

Q: And the GI% (NCI-H522)?
A: 30.52%

Q: And the GI% (COLO 205)?
A: — (GI% < 10)

Q: And the GI% (HCC-2998)?
A: — (GI% < 10)

Q: And the GI% (HCT-116)?
A: 22.23%

Q: And the GI% (HCT-15)?
A: 13.42%

Q: What about the GI% (HT29) of the same compound?
A: 37.56%

Q: What about the GI% (KM12) of the same compound?
A: — (GI% < 10)

Q: What about the GI% (SW-620) of the same compound?
A: 10.78%

Q: And the GI% (SF-268)?
A: — (GI% < 10)

Q: And the GI% (SF-295)?
A: 10.37%

Q: And the GI% (SF-539)?
A: — (GI% < 10)

Q: What about the GI% (SNB-19) of the same compound?
A: — (GI% < 10)

Q: What about the GI% (SNB-75) of the same compound?
A: — (GI% < 10)

Q: And the GI% (U251)?
A: 13.78%

Q: And the GI% (LOX IMVI)?
A: 14.24%

Q: What about the GI% (MALME-3M) of the same compound?
A: — (GI% < 10)

Q: What about the GI% (M14) of the same compound?
A: — (GI% < 10)

Q: What about the GI% (MDA-MB-435) of the same compound?
A: — (GI% < 10)

Q: What about the GI% (SK-MEL-2) of the same compound?
A: — (GI% < 10)

Q: And the GI% (SK-MEL-28)?
A: — (GI% < 10)

Q: And the GI% (SK-MEL-5)?
A: 11.85%

Q: What about the GI% (UACC-257) of the same compound?
A: — (GI% < 10)

Q: What about the GI% (UACC-62) of the same compound?
A: 11.42%

Q: What about the GI% (IGROV1) of the same compound?
A: — (GI% < 10)

Q: And the GI% (OVCAR-3)?
A: — (GI% < 10)

Q: And the GI% (OVCAR-4)?
A: — (GI% < 10)

Q: And the GI% (OVCAR-5)?
A: — (GI% < 10)

Q: And the GI% (OVCAR-8)?
A: — (GI% < 10)

Q: And the GI% (NCI/ADR-RES)?
A: 12.03%

Q: What about the GI% (SK-OV-3) of the same compound?
A: — (GI% < 10)

Q: And the GI% (786–0)?
A: — (GI% < 10)

Q: And the GI% (A498)?
A: — (GI% < 10)

Q: What about the GI% (ACHN) of the same compound?
A: — (GI% < 10)

Q: And the GI% (CAKI-1)?
A: 10.99%

Q: What about the GI% (RXF 393) of the same compound?
A: — (GI% < 10)

Q: And the GI% (SN12C)?
A: 14.07%

Q: What about the GI% (TK-10) of the same compound?
A: — (GI% < 10)

Q: What about the GI% (UO-31) of the same compound?
A: 11.53%

Q: And the GI% (PC-3)?
A: 18.97%

Q: What about the GI% (DU-145) of the same compound?
A: — (GI% < 10)

Q: What about the GI% (MCF7) of the same compound?
A: — (GI% < 10)

Q: And the GI% (MDA-MB-231/ATCC)?
A: — (GI% < 10)

Q: And the GI% (HS 578T)?
A: — (GI% < 10)

Q: What about the GI% (BT-549) of the same compound?
A: — (GI% < 10)

Q: And the GI% (T-47D)?
A: 23.03%

Q: And the GI% (MDA-MB-468)?
A: — (GI% < 10)

Q: What about the “Mean GI%” value (NCI60 cell lines panel) of the same compound?
A: — (GI% < 10)
